Here are results for two molecules from PMC10953480 (RSC Medicinal Chemistry, 2024).

The subject of series [1] is CaV2.2. To be noted: read-out: CaV2.2 IC50; whole-cell patch clamp; cited from earlier work. For orientation: The patch-clamp technique gives a direct electrical read-out from membranes.
Series [2] relates to Cos-7 cells. Briefly: Cytotoxicity to Cos-7 cells. It is filed as cell-based, African green monkey (Cercopithecus aethiops).

As for `NC(N)=NCCCOc1ccc(C(=O)Nc2ccccc2Oc2ccc(F)cc2)cc1` [MONIRO-1 6a], in series [1], the IC50 (usually the midpoint of a concentration-inhibition curve) was 34 µM.

`CN(C)CCCOc1ccc(C(=O)Nc2ccccc2Oc2ccccc2)cc1` [7b]: the “concentration up to which well tolerated by Cos-7 cells” value in series [2] is at most 100 µM.
